Measured values published in patent US8063221B2, “Aminoquinolones as GSK-3 inhibitors” (Kyorin Pharmaceutical Co., Ltd., priority 2006, dated 2011).
In brackets after ≈: the same amount, converted by molar mass. Like-named read-outs stand apart in the source and are kept apart here.

How the values were obtained:
[1] = biological target: T1, recombinant full-length human GSK3β (Homo sapiens, UniProt P49841); assay: Luciferase-coupled cell-free GSK3β kinase assay; type: biochemical
T1 construct: recombinant full-length human GSK3β (Upstate); purchased Upstate
Experimental: For compounds in Tables 1 and 2, IC50 (μM) for GSK3β enzyme in cell free assay is provided as follows:
Luciferase-Coupled Protein Kinase Assays
All coupled-luciferase assays are performed by using a brief incubation with firefly luciferase (Promega) after completion of the kinase assay. KinaseGlo Plus is used for reading kinase reactions with ATP>10 μM, KinaseGlo for ATP <10 μM. The assay volume in a 384-well plate for the kinase reaction is 30 microliters.
10-25 ng of recombinant full-length human GSK3β (Upstate) is incubated in the presence or absence of compound at varying concentrations for 1 hour at 30 degrees Celsius in 20 mM MOPS, pH 7.0, 10 mM magnesium acetate, 0.2 mM EDTA, 2 mM EGTA, 30 mM magnesium chloride, 62.5 μM phospho-glycogen synthase peptide-2, 5 μM ATP, 10 mM β-glycerol phosphate, 1 mM sodium orthovanadate and 1 mM dithiothreitol. Proceed to KinaseGlo luciferase reaction (see below).
Following the completion of the kinase reaction an equal volume of KinaseGlo or KinaseGlo Plus luciferase reagent (Promega) is added and the luminescence read using a luminescence plate reader within 5-10 minutes. Compound activity is expressed as % inhibition relative to maximal inhibition observed at the maximal dose and IC50 values then calculated using curve fitting software (GraphPad Prizm).

E. coli, ATCC8739 = assay: Antibacterial activity (MIC), E. coli; type: cell-based; conditions: Escherichia coli
Source text: (§1) As used herein, a minimum inhibitory concentration (MIC) for bacterial growth assay is the lowest level of a compound needed to cause an inhibition to bacterial growth in culture medium. In certain embodiments, the antibacterial activity of compounds herein, measured as MIC.
(§2) In certain embodiments, GSK3 inhibitors provided herein are substantially free of antibacterial activity or having very low antibacterial activity. The antibacterial activity can be measured by methods known in the art by estimating a minimum inhibitory concentration (MIC) for test compounds. A MIC is the lowest level of a compound needed to cause an inhibition to bacterial growth in a culture medium. […] (Clinical and Laboratory Standards Institute. Methods for Dilution Antimicrobial Susceptibility Tests for Bacteria That Grow Aerobically; Approved Standard-Sixth Edition: CLSI document […]. CLSI, Wayne, Pa. (2003))
(§3) Antibacterial activity for E. coli, ATCC8739 andS. aureus Smith expressed as MIC (μM) is provided as follows: […]

S. aureus Smith = assay: Antibacterial activity (MIC), S. aureus; type: cell-based; conditions: Staphylococcus aureus
Source text: as §1, §2, §3

[2] = ATCC8739, Table 2, E. coli ATCC8739, read-out: Antimicrobial MIC [μM] E. Coli
[3] = Table 2, S. aureus Smith, read-out: Antimicrobial MIC [μM] S. aureus
[4] = ATCC8739, Table 1, E. coli ATCC8739, read-out: Antibacterial MIC (μM) E.Coli
[5] = Table 1, read-out: Antibacterial MIC (μM) S. aureus Smith
[6] = ATCC8739, read-out: Antibacterial MIC (μM) E.Coli
[7] = read-out: Antibacterial MIC (μM) S. aureus Smith

T1 sequence (P49841 whole entry): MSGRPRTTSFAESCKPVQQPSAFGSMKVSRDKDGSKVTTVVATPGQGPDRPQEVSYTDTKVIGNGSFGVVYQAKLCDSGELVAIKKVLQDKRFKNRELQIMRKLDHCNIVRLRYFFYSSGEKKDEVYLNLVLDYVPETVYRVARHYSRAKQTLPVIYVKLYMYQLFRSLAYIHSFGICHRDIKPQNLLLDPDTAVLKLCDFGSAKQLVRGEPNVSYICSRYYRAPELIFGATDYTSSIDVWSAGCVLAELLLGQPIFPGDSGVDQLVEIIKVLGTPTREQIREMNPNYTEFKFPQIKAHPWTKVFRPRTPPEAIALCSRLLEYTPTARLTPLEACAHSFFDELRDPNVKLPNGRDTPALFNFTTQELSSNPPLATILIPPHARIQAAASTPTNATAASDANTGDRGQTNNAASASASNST

`Nc1c(F)c(NCCCn2ccnc2)c2c3c1c(=O)c(C(=O)O)cn3CCO2` [compound 9] showed an IC50 ([1]; Table 2) of 500 to 1000 nM, an MIC (E. coli, ATCC8739; [2]) of 10 to 50 µM (≈ 3.87 to 19.4 µg/mL) and an MIC (S. aureus Smith; [3]) of over 50 µM.

For `Nc1c(F)c(NCCc2ccncc2)c(F)c2c1c(=O)c(C(=O)O)cn2C1CC1` [compound 3], the IC50 ([1]; Table 1) was 100 to 500 nM, the MIC (E. coli, ATCC8739; [4]) was 0.5 to 10 µM (≈ 0.2 to 4 µg/mL) and the MIC (S. aureus Smith; [5]) was under 0.5 µM.

Molecule `O=C(O)c1cn(C2CC2)c2c(F)c(NCCNc3ccccn3)c(F)c(S)c2c1=O` [Example 131] has an IC50 ([1]; Table 2) of under 100 nM, an MIC (E. coli, ATCC8739; [2]) of 0.5 to 10 µM (≈ 0.216 to 4.32 µg/mL) and an MIC (S. aureus Smith; [3]) of 0.5 to 10 µM (≈ 0.216 to 4.32 µg/mL).

Work on `COc1c(NCCCn2cnc3ccccc32)c(F)c(N)c2c(=O)c(C(=O)O)cn(C3CC3)c12` [compound 83] yielded an IC50 ([1]; Table 1) of under 100 nM, an MIC (E. coli, ATCC8739; [6]) of 10 to 50 µM (≈ 4.65 to 23.3 µg/mL) and an MIC (S. aureus Smith; [7]) of 0.5 to 10 µM (≈ 0.233 to 4.65 µg/mL).

`CC(C)(C)OC(=O)NCCNc1c(F)c(N)c2c(=O)c(C(=O)O)cn(C3CC3)c2c1F` [compound 21] gave an IC50 ([1]; Table 1) of 500 to 1000 nM, an MIC (E. coli, ATCC8739; [4]) of 0.5 to 10 µM (≈ 0.219 to 4.38 µg/mL) and an MIC (S. aureus Smith; [5]) of 0.5 to 10 µM (≈ 0.219 to 4.38 µg/mL).

`Nc1c(F)c(NCCCc2ccccc2)c(F)c2c1c(=O)c(C(=O)O)cn2C1CC1` [compound 6] showed an IC50 ([1]; Table 1) of under 100 nM, an MIC (E. coli, ATCC8739; [4]) of 10 to 50 µM (≈ 4.13 to 20.7 µg/mL) and an MIC (S. aureus Smith; [5]) of 0.5 to 10 µM (≈ 0.207 to 4.13 µg/mL).

Work on `Nc1c(F)c(NCCc2ccncc2)c(F)c2c1c(=O)c(C(=O)O)cn2C1CCCC1` [compound 53] yielded an IC50 ([1]; Table 1) of 100 to 500 nM, an MIC (E. coli, ATCC8739; [4]) of 10 to 50 µM (≈ 4.28 to 21.4 µg/mL) and an MIC (S. aureus Smith; [5]) of 10 to 50 µM (≈ 4.28 to 21.4 µg/mL).

Molecule `Nc1c(F)c(NCCc2ccncc2)c(F)c2c1c(=O)c(C(=O)O)cn2CCc1ccccc1` [compound 47] has an IC50 ([1]; Table 1) of under 100 nM, an MIC (E. coli, ATCC8739; [4]) of 10 to 50 µM (≈ 4.64 to 23.2 µg/mL) and an MIC (S. aureus Smith; [5]) of 10 to 50 µM (≈ 4.64 to 23.2 µg/mL).

In the case of `Nc1c(F)c(NCCCc2ccccc2)c(F)c2c1c(=O)ccn2C1CC1` [compound 13], the IC50 ([1]; Table 1) is reported as 100 to 500 nM, the MIC (E. coli, ATCC8739; [4]) is reported as 10 to 50 µM (≈ 3.69 to 18.5 µg/mL) and the MIC (S. aureus Smith; [5]) is reported as 10 to 50 µM (≈ 3.69 to 18.5 µg/mL).

For `Nc1c(F)c(NCCNc2ccccn2)c(F)c2c1c(=O)ccn2C1CCCC1` [compound 76], the IC50 ([1]; Table 1) was under 100 nM, the MIC (E. coli, ATCC8739; [4]) was over 50 µM and the MIC (S. aureus Smith; [5]) was over 50 µM.

For `Nc1c(F)c(NCCCn2ccnc2)c(F)c2c1c(=O)c(C(=O)O)cn2CCc1ccccc1` [compound 48], the IC50 ([1]; Table 1) was under 100 nM, the MIC (E. coli, ATCC8739; [4]) was over 50 µM and the MIC (S. aureus Smith; [5]) was over 50 µM.

In the case of `Nc1c(F)c(NCCc2ccccc2)c(F)c2c1c(=O)c(C(=O)O)cn2C1CC1` [compound 1], the IC50 ([1]; Table 1) is reported as 100 to 500 nM, the MIC (E. coli, ATCC8739; [4]) is reported as 0.5 to 10 µM (≈ 0.2 to 3.99 µg/mL) and the MIC (S. aureus Smith; [5]) is reported as under 0.5 µM.

For `Cc1c(C(=O)O)c(=O)c2c(N)c(F)c(NCCNc3ccccn3)c(OC(C)C)c2n1C1CC1` [Example 127], the IC50 ([1]; Table 2) was 100 to 500 nM, the MIC (E. coli, ATCC8739; [2]) was 10 to 50 µM (≈ 4.7 to 23.5 µg/mL) and the MIC (S. aureus Smith; [3]) was 0.5 to 10 µM (≈ 0.235 to 4.7 µg/mL).

For `CC1(C)COc2c(NCCc3ccncc3)c(F)c(N)c3c(=O)c(C(=O)O)cn1c23` [compound 39], the IC50 ([1]; Table 2) was 100 to 500 nM, the MIC (E. coli, ATCC8739; [2]) was over 50 µM and the MIC (S. aureus Smith; [3]) was 10 to 50 µM (≈ 4.12 to 20.6 µg/mL).

With `C[C@H]1COc2c(NCCCN3CCCC3=O)c(F)c(N)c3c(=O)c(C(=O)O)cn1c23` [compound 23] the IC50 ([1]; Table 2) was 100 to 500 nM, the MIC (E. coli, ATCC8739; [2]) was 0.5 to 10 µM (≈ 0.209 to 4.18 µg/mL) and the MIC (S. aureus Smith; [3]) was 0.5 to 10 µM (≈ 0.209 to 4.18 µg/mL).

`Nc1c(F)c(NCCNc2ccccn2)c2c3c1c(=O)c(C(=O)O)cn3[C@@H](Cc1ccccc1)CO2` [Example 120] was tested, and the IC50 ([1]; Table 2) was 100 to 500 nM, the MIC (E. coli, ATCC8739; [2]) was 10 to 50 µM (≈ 4.9 to 24.5 µg/mL) and the MIC (S. aureus Smith; [3]) was 10 to 50 µM (≈ 4.9 to 24.5 µg/mL).

`Nc1c(F)c(NC(=O)CCc2ccccc2)c(F)c2c1c(=O)c(C(=O)O)cn2C1CC1` [Example 126] gave an IC50 ([1]; Table 2) of over 1000 nM, an MIC (E. coli, ATCC8739; [2]) of 0.5 to 10 µM (≈ 0.214 to 4.27 µg/mL) and an MIC (S. aureus Smith; [3]) of 0.5 to 10 µM (≈ 0.214 to 4.27 µg/mL).

With `Nc1c(F)c(NCCNc2cccc3ccccc23)c(F)c2c1c(=O)c(C(=O)O)cn2C1CC1` [compound 43] the IC50 ([1]; Table 1) was under 100 nM, the MIC (E. coli, ATCC8739; [4]) was 0.5 to 10 µM (≈ 0.232 to 4.64 µg/mL) and the MIC (S. aureus Smith; [5]) was 0.5 to 10 µM (≈ 0.232 to 4.64 µg/mL).

With `Nc1c(F)c(NCCNc2ccccn2)cc2c1c(=O)c(C(=O)O)cn2C1CCOCC1` [Example 135] the IC50 ([1]; Table 2) was under 100 nM, the MIC (E. coli, ATCC8739; [2]) was 10 to 50 µM (≈ 4.41 to 22.1 µg/mL) and the MIC (S. aureus Smith; [3]) was 10 to 50 µM (≈ 4.41 to 22.1 µg/mL).

`Nc1c(F)c(NCCCc2ccccc2)c2c3c1c(=O)c(C(=O)O)cn3CCO2` [compound 8] was tested, and the IC50 ([1]; Table 2) was over 1000 nM, the MIC (E. coli, ATCC8739; [2]) was 10 to 50 µM (≈ 3.97 to 19.9 µg/mL) and the MIC (S. aureus Smith; [3]) was 10 to 50 µM (≈ 3.97 to 19.9 µg/mL).

`CC(C)OCCCNc1c(F)c(N)c2c(=O)c(C(=O)O)cn(C3CC3)c2c1F` [compound 17] showed an IC50 ([1]; Table 1) of 100 to 500 nM, an MIC (E. coli, ATCC8739; [6]) of 0.5 to 10 µM (≈ 0.198 to 3.95 µg/mL) and an MIC (S. aureus Smith; [7]) of 0.5 to 10 µM (≈ 0.198 to 3.95 µg/mL).
